Source: PubChem BioAssay (NCI)
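Following 48 hours of exposure in 96-well plates, responses at five concentrations were used to interpolate endpoints linearly. At the GI50, growth is halved. TGI: concentration producing complete growth inhibition.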

What was measured:
Assay in all cases: inhibition of tumour cell growth, NCI panel, 48 h
NCI-H226 lung = system: NCI-H226 lung
MCF7 breast = system: MCF7 breast
NCI-H460 lung = system: NCI-H460 lung
SF-539 CNS = system: SF-539 CNS
A549 NSCLC = system: A549 NSCLC
IGROV1 ovarian = system: IGROV1 ovarian
U251 CNS = system: U251 CNS
SF-268 CNS = system: SF-268 CNS
BT-549 breast = system: BT-549 breast
MDA-MB-435 = system: MDA-MB-435
SNB-19 CNS = system: SNB-19 CNS
SK-MEL-28 melanoma = system: SK-MEL-28 melanoma
OVCAR-5 ovarian = system: OVCAR-5 ovarian
HCT-116 colon = system: HCT-116 colon
HOP-62 NSCLC = system: HOP-62 NSCLC
NCI/ADR-RES ovarian = system: NCI/ADR-RES ovarian
LOX IMVI melanoma = system: LOX IMVI melanoma
SN12C renal = system: SN12C renal
RPMI-8226 leukemia = system: RPMI-8226 leukemia
UACC-257 melanoma = system: UACC-257 melanoma
SNB-75 CNS = system: SNB-75 CNS
CAKI-1 renal = system: CAKI-1 renal
SW-620 colon = system: SW-620 colon
HOP-92 NSCLC = system: HOP-92 NSCLC
HL-60(TB) leukemia = system: HL-60(TB) leukemia
HS 578T breast = system: HS 578T breast
SR leukemia = system: SR leukemia
PC-3 prostate = system: PC-3 prostate
HCC-2998 colon = system: HCC-2998 colon
COLO 205 colon = system: COLO 205 colon
M14 melanoma = system: M14 melanoma
T-47D breast = system: T-47D breast
MDA-MB-231 breast = system: MDA-MB-231 breast
RXF 393 renal = system: RXF 393 renal
K-562 leukemia = system: K-562 leukemia
OVCAR-4 ovarian = system: OVCAR-4 ovarian
UACC-62 melanoma = system: UACC-62 melanoma
KM12 colon = system: KM12 colon
MALME-3M melanoma = system: MALME-3M melanoma
A498 renal = system: A498 renal
HT29 colon = system: HT29 colon
NCI-H522 lung = system: NCI-H522 lung
OVCAR-3 ovarian = system: OVCAR-3 ovarian
HCT-15 colon = system: HCT-15 colon
TK-10 renal = system: TK-10 renal
EKVX NSCLC = system: EKVX NSCLC
MOLT-4 leukemia = system: MOLT-4 leukemia
786-0 renal = system: 786-0 renal
UO-31 renal = system: UO-31 renal
SF-295 CNS = system: SF-295 CNS
OVCAR-8 ovarian = system: OVCAR-8 ovarian
SK-MEL-2 melanoma = system: SK-MEL-2 melanoma
SK-OV-3 ovarian = system: SK-OV-3 ovarian
ACHN renal = system: ACHN renal
DU-145 prostate = system: DU-145 prostate
SK-MEL-5 melanoma = system: SK-MEL-5 melanoma

SMILES: N/C(=N\c1nc2c(Br)cccc2s1)C(Br)Br
- GI50 (NCI-H226 lung): 11.3 µM
- TGI (NCI-H226 lung): 38.6 µM
- GI50 (MCF7 breast): 2.25 µM
- TGI (MCF7 breast): 11.3 µM
- GI50 (NCI-H460 lung): 2.55 µM
- TGI (NCI-H460 lung): 11.5 µM
- GI50 (SF-539 CNS): 3.7 µM
- TGI (SF-539 CNS): 15 µM
- GI50 (A549 NSCLC): 7.76 µM
- TGI (A549 NSCLC): 21.9 µM
- GI50 (IGROV1 ovarian): 10.4 µM
- TGI (IGROV1 ovarian): 31.6 µM
- GI50 (U251 CNS): 2.83 µM
- TGI (U251 CNS): 12.1 µM
- GI50 (SF-268 CNS): 4.67 µM
- TGI (SF-268 CNS): 26.9 µM
- GI50 (BT-549 breast): 11.2 µM
- TGI (BT-549 breast): 29.9 µM
- GI50 (MDA-MB-435): 3.22 µM
- TGI (MDA-MB-435): 13.7 µM
- GI50 (SNB-19 CNS): 10.4 µM
- TGI (SNB-19 CNS): 27.8 µM
- GI50 (SK-MEL-28 melanoma): 11.1 µM
- TGI (SK-MEL-28 melanoma): 23.3 µM
- GI50 (OVCAR-5 ovarian): 12 µM
- TGI (OVCAR-5 ovarian): 25.8 µM
- GI50 (HCT-116 colon): 2.27 µM
- TGI (HCT-116 colon): 16.8 µM
- GI50 (HOP-62 NSCLC): 10.5 µM
- TGI (HOP-62 NSCLC): 27.8 µM
- GI50 (NCI/ADR-RES ovarian): 2.58 µM
- TGI (NCI/ADR-RES ovarian): 9.81 µM
- GI50 (LOX IMVI melanoma): 0.307 µM
- TGI (LOX IMVI melanoma): 1.29 µM
- GI50 (SN12C renal): 11.7 µM
- TGI (SN12C renal): 29.8 µM
- GI50 (RPMI-8226 leukemia): 2.97 µM
- TGI (RPMI-8226 leukemia): 16.4 µM
- GI50 (UACC-257 melanoma): 13.5 µM
- TGI (UACC-257 melanoma): 28 µM
- GI50 (SNB-75 CNS): 10.2 µM
- TGI (SNB-75 CNS): 22.1 µM
- GI50 (CAKI-1 renal): 2.1 µM
- TGI (CAKI-1 renal): 8.98 µM
- GI50 (SW-620 colon): 2.26 µM
- TGI (SW-620 colon): 11.2 µM
- GI50 (HOP-92 NSCLC): 6.07 µM
- TGI (HOP-92 NSCLC): 29.4 µM
- GI50 (HL-60(TB) leukemia): 7.38 µM
- TGI (HL-60(TB) leukemia): 57.5 µM
- GI50 (HS 578T breast): 7.24 µM
- TGI (HS 578T breast): > 100 µM
- GI50 (SR leukemia): 4.68 µM
- TGI (SR leukemia): 31 µM
- GI50 (PC-3 prostate): 8.68 µM
- TGI (PC-3 prostate): 26.1 µM
- GI50 (HCC-2998 colon): 3.62 µM
- TGI (HCC-2998 colon): 14.3 µM
- GI50 (COLO 205 colon): 3.49 µM
- TGI (COLO 205 colon): 13.9 µM
- GI50 (M14 melanoma): 10.4 µM
- TGI (M14 melanoma): 28.1 µM
- GI50 (T-47D breast): 10.3 µM
- TGI (T-47D breast): 36.1 µM
- GI50 (MDA-MB-231 breast): 5.51 µM
- TGI (MDA-MB-231 breast): 28 µM
- GI50 (RXF 393 renal): 2.74 µM
- TGI (RXF 393 renal): 9.95 µM
- GI50 (K-562 leukemia): 2.66 µM
- TGI (K-562 leukemia): 52.7 µM
- GI50 (OVCAR-4 ovarian): 6.21 µM
- TGI (OVCAR-4 ovarian): 30.6 µM
- GI50 (UACC-62 melanoma): 6.63 µM
- TGI (UACC-62 melanoma): 24.3 µM
- GI50 (KM12 colon): 4.29 µM
- TGI (KM12 colon): 22.4 µM
- GI50 (MALME-3M melanoma): 8.53 µM
- TGI (MALME-3M melanoma): 24.4 µM
- GI50 (A498 renal): 21.5 µM
- TGI (A498 renal): 50.6 µM
- GI50 (HT29 colon): 2.91 µM
- TGI (HT29 colon): 12.8 µM
- GI50 (NCI-H522 lung): 6.16 µM
- TGI (NCI-H522 lung): 21.7 µM
- GI50 (OVCAR-3 ovarian): 4.19 µM
- TGI (OVCAR-3 ovarian): 16.6 µM
- GI50 (HCT-15 colon): 2.57 µM
- TGI (HCT-15 colon): 11.5 µM
- GI50 (TK-10 renal): 15.9 µM
- TGI (TK-10 renal): 32.2 µM
- GI50 (EKVX NSCLC): 11.4 µM
- TGI (EKVX NSCLC): 28 µM
- GI50 (MOLT-4 leukemia): 3.9 µM
- TGI (MOLT-4 leukemia): 27.3 µM
- GI50 (786-0 renal): 13.1 µM
- TGI (786-0 renal): 35.2 µM
- GI50 (UO-31 renal): 5.69 µM
- TGI (UO-31 renal): 20.2 µM
- GI50 (SF-295 CNS): 10.6 µM
- TGI (SF-295 CNS): 25.9 µM
- GI50 (OVCAR-8 ovarian): 8.18 µM
- TGI (OVCAR-8 ovarian): 24.1 µM
- GI50 (SK-MEL-2 melanoma): 15.4 µM
- TGI (SK-MEL-2 melanoma): 34.7 µM
- GI50 (SK-OV-3 ovarian): 10.8 µM
- TGI (SK-OV-3 ovarian): 35.4 µM
- GI50 (ACHN renal): 2.98 µM
- TGI (ACHN renal): 11.8 µM
- GI50 (DU-145 prostate): 3.84 µM
- TGI (DU-145 prostate): 16 µM
- GI50 (SK-MEL-5 melanoma): 17.5 µM
- TGI (SK-MEL-5 melanoma): 32 µM
